Tests used:
[1] = tested on: Staphylococcus aureus (S. aureus) 11540 strain; assay: standard microdilution assay, minimum inhibitory concentration (MIC); type: cell-based
Description: (§1) The in vitro activity of the compounds of the present disclosure can be determined. Antimicrobial testing is typically performed to determine the minimum inhibitory concentration (MIC). Minimum inhibitory concentrations (MICs) are determined by the microdilution method in a final volume of 100 μl according to protocols outlined by The Clinical and Laboratory Standards Institute (CLSI). Performance standards for reference strains are assessed within the same experimental design to maintain quality control. See, for example, Clinical Laboratory Standards Institute: Methods for dilution antimicrobial susceptibility tests for bacteria that grow aerobically M7-A8. Approved Standard-Eighth Edition. Wayne, Pa.: CLSI; December 2008; and Clinical Laboratory Standards Institute: Performance Standards for Antimicrobial Susceptibility Testing M100-S20; Approved Standard-Twentieth Edition. Wayne, Pa.: CLSI; June 2010. The compounds of the present disclosure were tested for antimicrobial activity. The Compounds 1-149 were run against Eschericia coli (E. Coli) strain ATCC25922 and against Staphylococcus aureus (S. aureus) 11540 strain using a standard microdilution assay to determine minimum inhibitory concentrations (MICs). […] It will be recognized by one skilled in the art that the compounds can be assessed against other bacterial organisms and that the presentation of data for activity against Eschericia coli and Staphylococcus aureus are illustrative and in no way is intended to limit the scope of the present disclosure. The compounds of the present disclosure can be assayed against a range of other microorganisms depending upon the performance activity desired to be gathered. Furthermore, the “+” and “−” representation and the selection of a cutoff value of 16 micrograms/mL is also illustrative and in no way is intended to limit the scope of the present disclosure.

[2] = tested on: Eschericia coli (E. Coli) strain ATCC25922; assay: as above; type: cell-based; conditions: Escherichia coli
Description: as §1

| Structure (SMILES) | MIC ([1]; Table 2, 11540 strain) [µg/mL] | MIC ([2]; Table 2, strain ATCC25922) [µg/mL] | MIC ([1]; Table 2a) [µg/mL] | MIC ([2]; ATCC25922, Table 2a) [µg/mL] |
| --- | --- | --- | --- | --- |
| C=C[C@H]1C[C@@H](CCNC(=N)N)O[C@H](c2ccc(-n3cc4cc(C5CCN(C(=N)N)C5)[nH]c4nc3=O)cc2)C1 (stereo partly shown) [Compound 80] | > 16 | > 16 | – | – |
| C[C@H](N)CCCc1cc(Cl)c(F)c(-c2cc3cn(-c4ccc(CO[C@@H](C)CCNC(=N)N)cc4)c(=O)nc3[nH]2)c1 [Compound 66] | ≤ 16 | ≤ 16 | – | – |
| C[C@H](N)CCCc1cc(Cl)c(F)c(-c2cc3cn(-c4ccc(CN[C@@H](CCO)CCNC(=N)N)cc4)c(=O)nc3[nH]2)c1 [Compound 13] | ≤ 16 | ≤ 16 | – | – |
| C[C@H](N)CCCc1cc(Cl)c(F)c(-c2cc3cn(-c4ccc(CN[C@H](CCNC(=N)N)CNc5cccnc5)cc4)c(=O)nc3[nH]2)c1 [Compound 54] | ≤ 16 | ≤ 16 | – | – |
| C[C@H](N)CCCc1cc(Cl)c(F)c(-c2cc3cn(-c4ccc([C@@H]5CCC[C@@H](CCNC(=N)C6CC6)N5)cc4)c(=O)nc3[nH]2)c1 [Compound 83] | ≤ 16 | ≤ 16 | – | – |
| C[C@H](N)CCCc1cc(Cl)c(F)c(-c2cc3cn(-c4ccc(CN[C@H](CCNC(=N)N)CNc5ccc[nH]c5=O)cc4)c(=O)nc3[nH]2)c1 [Compound 62] | ≤ 16 | ≤ 16 | – | – |
| C[C@H](N)CCCc1cc(Cl)c(F)c(-c2cc3cn(-c4ccc(CN[C@H](CCNC(=N)N)CNc5ccon5)cc4)c(=O)nc3[nH]2)c1 [Compound 33] | ≤ 16 | ≤ 16 | – | – |
| C[C@H](N)CCCc1cc(Cl)c(F)c(-c2cc3cn(-c4ccc(CO[C@@H](CN)CCNC(=N)N)cc4)c(=O)nc3[nH]2)c1 [Compound 68] | ≤ 16 | ≤ 16 | – | – |
| CCC(=N)NCC[C@@H]1CCC[C@@H](c2ccc(-n3cc4cc(-c5cc(CCC[C@H](C)N)cc(Cl)c5F)[nH]c4nc3=O)cc2)N1 [Compound 81] | ≤ 16 | ≤ 16 | – | – |
| C[C@H](N)CCCc1cc(Cl)c(F)c(-c2cc3cn(-c4ccc([C@H]5C[C@H](CCNC(=N)N)C[C@H](CN)O5)cc4)c(=O)nc3[nH]2)c1 [Compound 96] | ≤ 16 | ≤ 16 | – | – |
| C[C@H](N)CCCc1cc(Cl)c(F)c(-c2cc3cn(-c4ccc([C@@H]5N[C@@H](CCNC(=N)N)CCO5)cc4)c(=O)nc3[nH]2)c1 [Compound 32] | ≤ 16 | ≤ 16 | – | – |
| N=C(N)NCC[C@@H]1CCC[C@@H](c2ccc(-n3cc4cc(CCNC5CCNCC5)[nH]c4nc3=O)cc2)N1 [Compound 101] | ≤ 16 | ≤ 16 | – | – |
| C[C@H](N)CCCc1cc(Cl)c(F)c(-c2cc3cn(-c4ccc([C@@H]5CCC[C@@H](CCNC6=NCCC6)N5)cc4)c(=O)nc3[nH]2)c1 [Compound 27] | ≤ 16 | ≤ 16 | – | – |

Other lines, results leading:

| MIC ([1]; Table 2, 11540 strain) [µg/mL] | MIC ([2]; Table 2, strain ATCC25922) [µg/mL] | MIC ([1]; Table 2a) [µg/mL] | MIC ([2]; ATCC25922, Table 2a) [µg/mL] | Structure (SMILES) |
| --- | --- | --- | --- | --- |
| ≤ 16 | ≤ 16 | – | – | CC(=N)NCC[C@H]1CC(NC(C)=N)C[C@H](c2ccc(-n3cc4cc(-c5cc(CCC[C@H](C)N)cc(Cl)c5F)[nH]c4nc3=O)cc2)O1 (stereo partly shown) [Compound 137] |
| ≤ 16 | ≤ 16 | – | – | C[C@H](NCCCNC(=N)N)c1ccc(-n2cc3cc(-c4cc([C@@H]5CC[C@H](CN)O5)cc(Cl)c4F)[nH]c3nc2=O)cc1 [Compound 149] |
| – | – | ≤ 16 | ≤ 16 | COC[C@H](N)CCCc1cc(OC(F)(F)F)c(F)c(-c2cc3cn(-c4ccc(CO[C@H](CCNC(C)=N)CNC(C)=N)cc4)c(=O)nc3[nH]2)c1 [Compound 161] |
| ≤ 16 | ≤ 16 | – | – | C=C[C@@H](CCNC(=N)N)NCc1ccc(-n2cc3cc(-c4cc([C@@H]5CC[C@H](CN)O5)cc(Cl)c4F)[nH]c3nc2=O)cc1 [Compound 142] |
| ≤ 16 | ≤ 16 | – | – | N=C(N)NCC[C@H]1CC(N)C[C@H](c2ccc(-n3cc4cc(CCNC5CCNCC5)[nH]c4nc3=O)cc2)O1 (stereo partly shown) [Compound 122] |
| ≤ 16 | ≤ 16 | – | – | C=C[C@@H](CCNC(=N)N)NCc1ccc(-n2cc3cc(-c4cc([C@@H]5CC[C@@H](CN)O5)cc(Cl)c4F)[nH]c3nc2=O)cc1 [Compound 141] |
| ≤ 16 | ≤ 16 | – | – | CC(=N)NCC[C@@H]1CCC[C@@H](c2ccc(-n3cc4cc(CCNC5CCNCC5)[nH]c4nc3=O)cc2)N1 [Compound 117] |
